For this assay, the target named is T1, BRD9 (Homo sapiens, UniProt Q9H8M2).
T1 sequence (Q9H8M2 1-597): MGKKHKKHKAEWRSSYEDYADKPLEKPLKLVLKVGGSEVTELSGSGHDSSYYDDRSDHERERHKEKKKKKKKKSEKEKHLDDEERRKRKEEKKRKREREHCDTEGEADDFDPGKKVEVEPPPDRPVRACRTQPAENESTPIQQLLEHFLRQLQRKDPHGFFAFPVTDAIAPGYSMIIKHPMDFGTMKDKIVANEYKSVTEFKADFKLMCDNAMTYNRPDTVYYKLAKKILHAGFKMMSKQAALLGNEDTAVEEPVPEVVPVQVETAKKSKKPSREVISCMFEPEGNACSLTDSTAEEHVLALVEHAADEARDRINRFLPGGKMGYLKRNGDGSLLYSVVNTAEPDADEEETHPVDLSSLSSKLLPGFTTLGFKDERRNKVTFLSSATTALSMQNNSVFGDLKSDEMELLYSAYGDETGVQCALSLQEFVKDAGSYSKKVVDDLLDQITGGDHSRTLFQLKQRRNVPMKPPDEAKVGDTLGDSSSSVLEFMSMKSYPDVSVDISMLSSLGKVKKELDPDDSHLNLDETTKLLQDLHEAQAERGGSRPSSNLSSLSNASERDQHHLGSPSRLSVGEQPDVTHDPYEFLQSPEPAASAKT
Kind of assay: Degradation of BRD9 (IF), immunofluorescence in MV4-11 cells, 24 hours (Assay Protocol 2). Type of assay: cell-based. Details: A suspension of MV4-11 cells (ATCC CRL-9591) was prepared; host or cells: MV4-11. The note with it: BRD9 degradation; for DC50: read-out: DC50. The procedure, abridged:
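% BRD9 remaining, scaled between DMSO (high) and 100 nM CFT-8634 (low) control wells, derives from mean Alexa 647 contrast in central nuclei by high-content imaging. MV4-11 cells had 24 h compound exposure at 37° C. before PFA fixation, Triton permeabilisation and anti-BRD9 E4Q3F immunostaining.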

Setting [1] is: MV4-11, Assay protocol 2, read-out: Dmax.

The structures appear in SMILES notation. Read-outs that look alike come from different tables or passages of the source.

For orientation: Dmax means the largest share of the target that was removed. By DC50 is commonly meant the midpoint of the concentration-degradation curve. `COc1cc(-c2cn(C)c(=O)c(C)c2C)cc(OC)c1CN1CCN(Cc2cccc3c2CCN(C(=O)/C(C#N)=C/C2CCOC2)C3C)C2(CC2)C1` (mixture of isomers) [Compound B173, (E/Z)-2-(5-((7-(2,6-dimethoxy-4-(1,4,5-trimethyl-6-oxo-1,6-dihydropyridin-3-yl)benzyl)-4,7-diazaspiro[2.5]octan-4-yl)methyl)-1-methyl-1,2,3,4-tetrahydroisoquinoline-2-carbonyl)-3-(tetrahydrofuran-3-yl)acrylonitril]: where the note is “Assay protocol 2”, the Dmax entry is given as “+++ (+++ = ≥75%)” and the DC50 was less than 1.25 nM.
Consider `COc1cc(-c2cn(C)c(=O)c(C)c2C)cc(OC)c1CN1CCN(Cc2cccc3c2CCN(C(=O)/C(C#N)=C/C2(C)CCOC2)C3C)C2(CC2)C1` (mixture of isomers) [Compound B174, (E/Z)-2-(5-((7-(2,6-dimethoxy-4-(1,4,5-trimethyl-6-oxo-1,6-dihydropyridin-3-yl)benzyl)-4,7-diazaspiro[2.5]octan-4-yl)methyl)-1-methyl-1,2,3,4-tetrahydroisoquinoline-2-carbonyl)-3-(3-methyltetrahydrofuran-3-yl)acrylonitrile], for which the DC50 (Assay protocol 2) was less than 1.25 nM. Also, the Dmax under setting [1] was greater than 75%.
As to `COc1cc(-c2cn(C)c(=O)c(C)c2C)cc(OC)c1CN1CCC(O)(Cc2cccc3c2CCN(C(=O)/C(C#N)=C/C(C)(C)C)C3C)CC1` (mixture of isomers) [Compound B175, (E/Z)-2-(5-((1-(2,6-dimethoxy-4-(1,4,5-trimethyl-6-oxo-1,6-dihydropyridin-3-yl)benzyl)-4-hydroxypiperidin-4-yl)methyl)-1-methyl-1,2,3,4-tetrahydroisoquinoline-2-carbonyl)-4,4-dimethylpent-2-enenitrile], the DC50 (Assay protocol 2) lay within 25 to 1000 nM. For the same compound, under setting [1], the Dmax was 40 to 70%.
Take `COc1cc(-c2cn(C)c(=O)c(C)c2C)cc(OC)c1CN1C2CC1CN(C(=O)/C(C#N)=C/c1cccc(C(F)(F)F)n1)C2` (mixture of isomers) [Compound B188, (E/Z)-2-(6-(2,6-dimethoxy-4-(1,4,5-trimethyl-6-oxo-1,6-dihydropyridin-3-yl)benzyl)-3,6-diazabicyclo[3.1.1]heptane-3-carbonyl)-3-(6-(trifluoromethyl)pyridin-2-yl)acrylonitrile]: the DC50 (Assay protocol 2) was less than 1.25 nM. Besides, under setting [1], the Dmax was greater than 75%.
In the same order, the values of `COc1cc(-c2cn(C)c(=O)c(C)c2C)cc(OC)c1CN1C2CC1CN(C(=O)/C(C#N)=C/C1(F)CC1)C2` (mixture of isomers) [Compound B189, (E/Z)-2-(6-(2,6-dimethoxy-4-(1,4,5-trimethyl-6-oxo-1,6-dihydropyridin-3-yl)benzyl)-3,6-diazabicyclo[3.1.1]heptane-3-carbonyl)-3-(1-fluorocyclopropyl)acrylonitrile] are 1.25 to 10 nM and greater than 75%.
On the same counts, the results for `COc1cc(-c2cn(C)c(=O)c(C)c2C)cc(OC)c1CN1C[C@@H](C)N(C(=O)/C(C#N)=C/C(C)(C)C)C[C@@H]1C` (mixture of isomers) [Compound B190, (E/Z)-2-((2R,5S)-4-(2,6-dimethoxy-4-(1,4,5-trimethyl-6-oxo-1,6-dihydropyridin-3-yl)benzyl)-2,6-dimethylpiperazine-1-carbonyl)-4,4-dimethylpent-2-enenitrile] are 25 to 1000 nM and 40 to 70%.
In the same order, the values of `COc1cc(-c2cn(C)c(=O)c(C)c2C)cc(OC)c1CN1CCN(Cc2cccc3c2CCN(C(=O)C(C#N)=CC24CC(OC)(C2)C4)C3C)C2(CC2)C1` (mixture of isomers) [Compound B191, (E/Z)-2-(5-((7-(2,6-dimethoxy-4-(1,4,5-trimethyl-6-oxo-1,6-dihydropyridin-3-yl)benzyl)-4,7-diazaspiro[2.5]octan-4-yl)methyl)-1-methyl-1,2,3,4-tetrahydroisoquinoline-2-carbonyl)-3-(3-methoxybicyclo[1.1.1]pentan-1-yl)acrylonitrile] are less than 1.25 nM and greater than 75%.
Regarding `COc1cc(-c2cn(C)c(=O)c(C)c2C)cc(OC)c1CN1CCN(Cc2ccc3c(c2)[C@@H](C)N(C(=O)/C(C#N)=C/C(C)(C)C)CC3)CC12CC2` (mixture of isomers) [Compound B199, (E/Z)-2-(7-((4-(2,6-dimethoxy-4-(1,4,5-trimethyl-6-oxo-1,6-dihydropyridin-3yl)benzyl)-4,7-diazaspiro[2.5]octan-7-yl)methyl)-1-methyl-1,2,3,4-tetrahydroisoquinoline-2-carbonyl)-4,4-dimethylpent-2-enenitrile], the half-maximal degradation concentration (DC50) (Assay protocol 2) fell in the range of 25 to 1000 nM. Further, the Dmax under setting [1] fell in the range of 40 to 70%.
On the same counts, the results for `COc1cc(-c2cn(C)c(=O)c(C)c2C)cc(OC)c1CN1CCN(Cc2ccc3c(c2)[C@H](C)N(C(=O)/C(C#N)=C/C(C)(C)C)CC3)CC12CC2` (mixture of isomers) [Compound B200, (E/Z)-2-(7-((4-(2,6-dimethoxy-4-(1,4,5-trimethyl-6-oxo-1,6-dihydropyridin-3yl)benzyl)-4,7-diazaspiro[2.5]octan-7-yl)methyl)-1-methyl-1,2,3,4-tetrahydroisoquinoline-2-carbonyl)-4,4-dimethylpent-2-enenitrile] are 1.25 to 10 nM and greater than 75%.
In the same order, the values of `COc1cc(-c2cn(C)c(=O)c(C)c2C)cc(OC)c1CN1CCN(Cc2cccc3c2CCN(C(=O)/C(C#N)=C/C(C)(C)C)C3C(C)C)CC1` (mixture of isomers) [Compound C7, (E/Z)-2-(5-((4-(2,6-dimethoxy-4-(1,4,5-trimethyl-6-oxo-1,6-dihydropyridin-3-yl)benzyl)piperazin-1-yl)methyl)-1-isopropyl-1,2,3,4-tetrahydroisoquinoline-2-carbonyl)-4,4-dimethylpent-2-enenitrile] are less than 1.25 nM and greater than 75%.
On the same counts, the results for `COc1cc(-c2cn(C)c(=O)c(C)c2C)cc(OC)c1CN1CCN(Cc2cccc3c2CCN(C(=O)/C(C#N)=C/C(C)(C)C)C3C(C)C)C2(CC2)C1` (mixture of isomers) [Compound C8, (E/Z)-2-(5-((7-(2,6-dimethoxy-4-(1,4,5-trimethyl-6-oxo-1,6-dihydropyridin-3-yl)benzyl)-4,7-diazaspiro[2.5]octan-4-yl)methyl)-1-isopropyl-1,2,3,4-tetrahydroisoquinoline-2-carbonyl)-4,4-dimethylpent-2-enenitrile] are less than 1.25 nM and greater than 75%.
In the case of `COc1cc(-c2cn(C)c(=O)c(C)c2C)cc(OC)c1CN1CCN(Cc2cccc3c2CCN(C(=O)/C(C#N)=C/C(C)(C)C)C3C(C)C)CC12CC2` (mixture of isomers) [Compound C10, (E/Z)-2-(5-((4-(2,6-dimethoxy-4-(1,4,5-trimethyl-6-oxo-1,6-dihydropyridin-3-yl)benzyl)-4,7-diazspiro[2.5-]octan-7-yl)methyl)-1-isopropyl-1,2,3,4-tetrahydroisoquinoline-2-carbonyl)-4,4-dimethylpent-2-enenitrile], the DC50 (Assay protocol 2) lay within 1.25 to 10 nM. Moreover, the Dmax under setting [1] is greater than 75%.
In the same order, the values of `COc1cc(-c2cn(C)c(=O)c(C)c2C)cc(OC)c1CN1CCCN(Cc2cccc3c2CCN(C(=O)/C(C#N)=C/C(C)(C)C)C3C(C)C)CC1` (mixture of isomers) [Compound C11, (E/Z)-2-(5-((4-(2,6-dimethoxy-4-(1,4,5-trimethyl-6-oxo-1,6-dihydropyridin-3-yl)benzyl)-1,4-diazepan-1-yl)methyl)-1-isopropyl-1,2,3,4-tetrahydroisoquinoline-2-carbonyl)-4,4-dimethylpent-2-enenitrile] are 1.25 to 10 nM and 40 to 70%.

Values taken from patent publication US20260092061A1, “COMPOUNDS FOR TARGETED PROTEIN DEGRADATION” (Amphista Therapeutics Limited, priority 2022, published 2026).
